“And” between values parts separate entries of the source, which are not always exact repeats. Identical values can stand only once.
Test: Permittivity (Q, e′, e″) by impedance analyzer, capacitance method
Assay type: physicochemical
Conditions: 27 MHz
Text: The property of permittivity is the measure of the resistance to forming an electric field. For purposes of comparing materials in air, it is often convenient to describe the permittivity of material in air where the permittivity is more specifically called “relative permittivity” or €r. This is a complex number represented by the following equation: €r=e′−je″ where e′ (the real portion of the complex number) is the dielectric constant (energy storage) and e″ (the imaginary portion of the complex number) is the dielectric loss or dissipation factor (energy dissipated as heat). The ratio of dielectric loss (e″) over the dielectric constant (e′) is called the loss tangent (tan δ) or power factor. […] The Q value is affected by physical and chemical properties such as density (porosity/particle size), moisture (conductivity), temperature, and molecular polarizability. The measurements obtained by this method can eliminate the need to measure and evaluate these properties independently.
Permittivity values (Q, e′, e″) were measured using an Agilent Impedance Analyzer at 27Mhz using a capacitance method wherein a fixture with a bottom fixed plate and top adjustable plate with a torque limiter which lightly compresses a cylindrical sample container to remove any air. During testing, the container is over filled with material and then carefully leveled off to avoid void spaces. A lid is placed on top to temporarily seal material within the container. Once a measurement is made, custom software calculates the difference between the sample and the configuration empty.

| Loss Tangent (Table 1A) | e′ (Table 1A) | e″ (Table 1A) | Loss Tangent (Table 1B) | e′ (Table 1B) | e″ (Table 1B) | Compound |
| --- | --- | --- | --- | --- | --- | --- |
| 0.0035 | 1.703 | 0.006 | 0.0022 | 1.6214 | 0.0035 | OC[C@@H](O)[C@@H](O[C@H]1O[C@H](CO)[C@@H](O)[C@H](O)[C@H]1O)[C@H](O)[C@@H](O)CO [Maltitol, NF (SweetPearl P300DC), Maltitol] |
| 0.0028 | 1.410 | 0.004 | – | – | – | OC[C@@H](O)[C@@H](O)[C@H](O)[C@H](O)CO [Mannitol NF (Pearlitol 200SD), Mannitol] |
| 0.0358 and 0.0462 and 0.0361 | 1.960 and 2.097 and 1.803 | 0.0701 and 0.0969 and 0.0650 | – | – | – | OC[C@@H](O)[C@@H](O)[C@H](O)[C@@H](O)CO [Sorbitol Powder, NF, Sorbitol] |

Reference: patent US10493026B2, “Process for making tablet using radiofrequency and lossy coated particles” (Johnson & Johnson Consumer Inc., priority 2017, dated 2019)
